Earlier results as cited in patent US8377888B2, “Method of predicting the clinical response to cisplatin or carboplatin chemotherapeutic treatment” (Pangaea Biotech, S.A., priority 2005, dated 2013).

Legend:
[1] = tested on: 14-3-3σ methylation-negative cell lines; settings: wild-type or mutated p53
[2] = tested on: MKN28 (14-3-3σ methylation-positive, mutated p53)
[3] = tested on: MKN74 (14-3-3σ methylation-positive, wild-type p53)
[4] = tested on: Colon carcinoma cells lacking 14-3-3σ; settings: cells initiate but do not maintain G2 arrest
[5] = tested on: non-small cell lung cancer (NSCLC); settings: per arm of randomized study

For `COc1cccc2c1C(=O)c1c(O)c3c(c(O)c1C2=O)C[C@@](O)(C(=O)CO)C[C@@H]3O[C@H]1C[C@H](N)[C@H](O)[C@H](C)O1` [adriamycin], the Sensitivity to adriamycin [1] is listed as “resistant”, the Sensitivity to adriamycin [2] is listed as “highly sensitive” and the Sensitivity to adriamycin [3] is listed as “highly sensitive”. The “Cell fate after adriamycin treatment” value [4] was “mitotic catastrophe and cell death”.
For paclitaxel/carboplatin, the Median survival [5] is listed as 8.2 months.
